Assays:
[1] = xn = mol fraction of the nth substance listed
[2] = 100 kPa

CCCCCCCO + COC(=O)OC
[1]
Conditions	viscosity [mPa·s]
293.15 K, 101 kPa, x2 = 0.04189	6.005
293.15 K, 101 kPa, x2 = 0.08197	5.163
293.15 K, 101 kPa, x2 = 0.1998	3.52
293.15 K, 101 kPa, x2 = 0.2986	2.615
293.15 K, 101 kPa, x2 = 0.4163	1.928
293.15 K, 101 kPa, x2 = 0.482	1.64
293.15 K, 101 kPa, x2 = 0.6031	1.231
293.15 K, 101 kPa, x2 = 0.7204	0.956
293.15 K, 101 kPa, x2 = 0.7985	0.818
293.15 K, 101 kPa, x2 = 0.9076	0.691
293.15 K, 101 kPa, x2 = 0.9573	0.661
303.15 K, 100 kPa, x2 = 0.0999	3.588
303.15 K, 100 kPa, x2 = 0.2	2.668
303.15 K, 100 kPa, x2 = 0.3001	2.033
303.15 K, 100 kPa, x2 = 0.4	1.59
303.15 K, 100 kPa, x2 = 0.5001	1.275
303.15 K, 100 kPa, x2 = 0.6	1.061
303.15 K, 100 kPa, x2 = 0.7	0.869
303.15 K, 100 kPa, x2 = 0.8	0.707
303.15 K, 100 kPa, x2 = 0.8999	0.609
303.15 K, 101 kPa, x2 = 0.06371	4.012
303.15 K, 101 kPa, x2 = 0.1014	3.549
303.15 K, 101 kPa, x2 = 0.2001	2.661
303.15 K, 101 kPa, x2 = 0.2928	2.07
303.15 K, 101 kPa, x2 = 0.4019	1.583
303.15 K, 101 kPa, x2 = 0.4949	1.282
303.15 K, 101 kPa, x2 = 0.5788	1.071
303.15 K, 101 kPa, x2 = 0.715	0.817
303.15 K, 101 kPa, x2 = 0.7902	0.719
303.15 K, 101 kPa, x2 = 0.9063	0.607
303.15 K, 101 kPa, x2 = 0.9354	0.584
308.15 K, 100 kPa, x2 = 0.0999	3.119
308.15 K, 100 kPa, x2 = 0.2	2.351
308.15 K, 100 kPa, x2 = 0.3001	1.809
308.15 K, 100 kPa, x2 = 0.4	1.434
308.15 K, 100 kPa, x2 = 0.5001	1.149
308.15 K, 100 kPa, x2 = 0.6	0.964
308.15 K, 100 kPa, x2 = 0.7	0.789
308.15 K, 100 kPa, x2 = 0.8	0.66
308.15 K, 100 kPa, x2 = 0.8999	0.57
313.15 K, 100 kPa, x2 = 0.0999	2.725
313.15 K, 100 kPa, x2 = 0.2	2.077
313.15 K, 100 kPa, x2 = 0.3001	1.616
313.15 K, 100 kPa, x2 = 0.4	1.288
313.15 K, 100 kPa, x2 = 0.5001	1.049
313.15 K, 100 kPa, x2 = 0.6	0.875
313.15 K, 100 kPa, x2 = 0.7	0.73
313.15 K, 100 kPa, x2 = 0.8	0.612
313.15 K, 100 kPa, x2 = 0.8999	0.536
313.15 K, 101 kPa, x2 = 0.04009	3.253
313.15 K, 101 kPa, x2 = 0.09588	2.743
313.15 K, 101 kPa, x2 = 0.2155	1.974
313.15 K, 101 kPa, x2 = 0.3104	1.571
313.15 K, 101 kPa, x2 = 0.4052	1.267
313.15 K, 101 kPa, x2 = 0.4938	1.054
313.15 K, 101 kPa, x2 = 0.5968	0.859
313.15 K, 101 kPa, x2 = 0.7024	0.709
313.15 K, 101 kPa, x2 = 0.7953	0.613
313.15 K, 101 kPa, x2 = 0.9018	0.535
313.15 K, 101 kPa, x2 = 0.9477	0.509
318.15 K, 100 kPa, x2 = 0.0999	2.392
318.15 K, 100 kPa, x2 = 0.2	1.847
318.15 K, 100 kPa, x2 = 0.3001	1.454
318.15 K, 100 kPa, x2 = 0.4	1.171
318.15 K, 100 kPa, x2 = 0.5001	0.961
318.15 K, 100 kPa, x2 = 0.6	0.809
318.15 K, 100 kPa, x2 = 0.7	0.683
318.15 K, 100 kPa, x2 = 0.8	0.573
318.15 K, 100 kPa, x2 = 0.8999	0.504
323.15 K, 100 kPa, x2 = 0.0999	2.113
323.15 K, 100 kPa, x2 = 0.2	1.651
323.15 K, 100 kPa, x2 = 0.3001	1.31
323.15 K, 100 kPa, x2 = 0.4	1.068
323.15 K, 100 kPa, x2 = 0.5001	0.885
323.15 K, 100 kPa, x2 = 0.6	0.738
323.15 K, 100 kPa, x2 = 0.7	0.638
323.15 K, 100 kPa, x2 = 0.8	0.539
323.15 K, 100 kPa, x2 = 0.8999	0.476

COP(=O)([O-])OC.C[N+]1(CCO)CCCC1
[2]
Conditions	viscosity [mPa·s]
293.15 K	1452
298.15 K	980.6
303.15 K	687.4
308.15 K	496.1
313.15 K	366
318.15 K	272.8
323.15 K	210.2

CCCCCCCO + CCCCO
viscosity [mPa·s], [1], 101 kPa
Conditions	298.15 K	308.15 K	318.15 K
x2 = 0.08	5.586	4.11	3.063
x2 = 0.15	5.398	3.965	2.971
x2 = 0.22	5.211	3.829	2.883
x2 = 0.28	5.027	3.7	2.798
x2 = 0.34	4.844	3.576	2.714
x2 = 0.4	4.664	3.456	2.632
x2 = 0.46	4.487	3.34	2.551
x2 = 0.51	4.313	3.226	2.47
x2 = 0.56	4.142	3.115	2.391
x2 = 0.61	3.976	3.004	2.312
x2 = 0.66	3.813	2.894	2.233
x2 = 0.7	3.654	2.785	2.155
x2 = 0.74	3.499	2.677	2.077
x2 = 0.79	3.348	2.57	2
x2 = 0.82	3.201	2.463	1.923
x2 = 0.86	3.058	2.359	1.847
x2 = 0.9	2.919	2.256	1.772
x2 = 0.93	2.783	2.157	1.698
x2 = 0.97	2.652	2.061	1.627
